Results on 7 compounds are retold here after patent US10947252B2, “Inhibitors of KEAP1-Nrf2 protein-protein interaction” (Janssen Pharmaceutica NV, priority 2018, dated 2021).

The subject of assay [1] is Glo-Response ARE-luc2P HEK293 cell line. Briefly: ARE luciferase reporter cell-based assay.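 Further: luciferase signal tracks Nrf2 activation of the ARE once compounds disrupt KEAP1-Nrf2 binding, read with One-Glo reagent, DMSO serving as low control.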 Particulars: Homo sapiens, HEK293, 24 h, average of results obtained.
For assay [2], the target named is Kelch domain of human KEAP1 (321-624 aa) (Homo sapiens (Human), UniProt Q14145). Briefly: KEAP1 KELCH ThermoFluor binding assay.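 Further: Ligand-induced melting temperature shift of E. coli-expressed KEAP1 Kelch protein, Kd estimated from concentration-response curves of ΔTm.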 The note with it: KEAP Kelch […], 1,8-ANS, pH 7.0, average of results obtained, read-out: Tf Kd.

SMILES strings stand for the structures. A value given as a limit tells only on which side of the number the result lay.

Sequence of Kelch domain of human KEAP1 (321-624 aa) (Q14145 321-624): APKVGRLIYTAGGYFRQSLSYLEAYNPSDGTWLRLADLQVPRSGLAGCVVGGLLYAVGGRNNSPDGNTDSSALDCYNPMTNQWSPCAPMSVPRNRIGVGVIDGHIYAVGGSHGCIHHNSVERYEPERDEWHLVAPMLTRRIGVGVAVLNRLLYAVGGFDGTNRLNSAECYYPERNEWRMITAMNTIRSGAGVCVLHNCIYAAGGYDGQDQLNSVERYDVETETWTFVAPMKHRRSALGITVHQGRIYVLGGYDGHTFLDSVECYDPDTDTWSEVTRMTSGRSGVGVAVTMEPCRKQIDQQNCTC

The compound `CCn1nnc2c(C)c([C@@H](c3cnc(C)c(CN4CC5(CCOCC5)Oc5ncccc5S4(=O)=O)c3)C(C)(C)C(=O)O)ccc21` (single isomer, unassigned) [Example 59, (*S)-3-(5-((1′,1′-Dioxido-2,3,5,6-tetrahydrospiro[pyran-4,4′-pyrido[2,3-b][1,4,5]oxathiazepin]-2′(3′H)-yl)methyl)-6-methylpyridin-3-yl)-3-(1-ethyl-4-methyl-1H-benzo[d][1,2,3]triazol-5-yl)-2,2-dimethylpropanoic Acid] registered an EC50 in assay [1] of 116 nM. The Kd in assay [2] was determined as 1.2 nM.
Regarding `Cc1ccc([C@@H](CC(=O)O)c2ccn3c(C(F)(F)F)nnc3c2C)nc1CN1C[C@@H]2CCCCN2c2ncc(Cl)cc2S1(=O)=O` (single isomer, unassigned) [Example 519, (*S)-3-(6-(((*S)-3-Chloro-5,5-dioxido-7,7a,8,9,10,11-hexahydro-6H-dipyrido[2,1-d:2′,3′-f][1,2,5]thiadiazepin-6-yl)methyl)-5-methylpyridin-2-yl)-3-(8-methyl-3-(trifluoromethyl)-[1,2,4]triazolo[4,3-a]pyridin-7-yl)propanoic Acid], in assay [1], a half-maximal effect (EC50) was put at 16 nM. Further, the Kd in assay [2] was < 1 nM.
Taken in the same sequence, the figures for `Cc1ccc([C@@H](c2ccn3c(C(F)(F)F)nnc3c2C)C(C)(C)C(=O)O)cc1CN1CC2(CC2)Oc2nc(OCCN3CC(F)C3)c(C)cc2S1(=O)=O` (single isomer, unassigned) [Example 596, (*S)-3-(3-((7′-(2-(3-fluoroazetidin-1-yl)ethoxy)-8′-methyl-1′,1′-dioxidospiro[cyclopropane-1,4′-pyrido[2,3-b][1,4,5]oxathiazepin]-2′(3′H)-yl)methyl)-4-methylphenyl)-2,2-dimethyl-3-(8-methyl-3-(trifluoromethyl)-[1,2,4]triazolo[4,3-a]pyridine-7-yl)propanoic Acid] were 3.08 nM and < 1 nM.
For `CCn1nnc2c(C)c([C@H](CC(=O)O)c3ccc(C)c(CN4CC5(COC5)Oc5ccccc5S4(=O)=O)n3)ccc21` (single isomer, unassigned) [Example 238, (*S)-3-(6-((1,1-Dioxidospiro[benzo[b][1,4,5]oxathiazepine-4,3′-oxetan]-2(3H)-yl)methyl)-5-methylpyridin-2-yl)-3-(1-ethyl-4-methyl-1H-benzo[d][1,2,3]triazol-5-yl)propanoic Acid] the same measures were 9.7 nM and < 1 nM.
Take `Cc1ccc(C(CC(=O)O)c2ccc3c(nnn3CC3CC3)c2C)cc1CN1C[C@H]2CCCN2c2ncccc2S1(=O)=O` (stereo partly drawn) [Example 400, 3-(1-(cyclopropylmethyl)-4-methyl-1H-benzo[d][1,2,3]triazol-5-yl)-3-(3-(((R)-5,5-dioxido-7a,8,9,10-tetrahydropyrido[2,3-f]pyrrolo[2,1-d][1,2,5]thiadiazepin-6(7H)-yl)methyl)-4-methylphenyl)propanoic acid]: in assay [1], it took 4.1 nM to reach a half-maximal effect (EC50). In addition, the dissociation constant Kd in assay [2] is < 1 nM.
For `Cc1cnc2c(c1)S(=O)(=O)N(Cc1cc(C(c3ccn4c(C(F)(F)F)nnc4c3C)C(C)(C)C(=O)O)cnc1C)CC1(CCOCC1)O2` (racemic) [Example 584, (R/S)-2,2-Dimethyl-3-(8-methyl-3-(trifluoromethyl)-[1,2,4]triazolo[4,3-a]pyridin-7-yl)-3-(6-methyl-5-((8′-methyl-1′,1′-dioxido-2,3,5,6-tetrahydrospiro[pyran-4,4′-pyrido[2,3-b][1,4,5]oxathiazepin]-2′(3′H)-yl)methyl)pyridin-3-yl)propanoic Acid] the same measures were 478 nM and < 1 nM.
`Cc1ccc([C@@H](CC(=O)O)c2ccn3c(C(F)F)nnc3c2C)cc1CN1C[C@]2(C)CCCN2c2ncccc2S1(=O)=O` (single isomer, unassigned) [Example 477, (*R)-3-(3-(Difluoromethyl)-8-methyl-[1,2,4]triazolo[4,3-a]pyridin-7-yl)-3-(4-methyl-3-(((*S)-7a-methyl-5,5-dioxido-7a,8,9,10-tetrahydropyrido[2,3-f]pyrrolo[2,1-d][1,2,5]thiadiazepin-6(7H)-yl)methyl)phenyl)propanoic Acid] yielded an EC50 in assay [1] of 1680 nM. The dissociation constant (Kd) in assay [2] was determined as 2.61 nM.
